In patent EP0029617A1, “Use of tertiary heterocyclic amines as synergists in pesticides; derivatives of cycloamines” (priority 1979, dated 1981):

Key:
[1] = system: Kornkäfer (sitophilus granarius L); test: whole plant or invertebrate; type: in vivo; conditions: for mortality at 1000 µg/mL: Sitophilus granarius, read-out: Wirksamkeit in % Substanz allein
Outline: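 Acetone solutions (2 ml) were dried as films in 15 cm Petri dishes and 25 grain weevils added per dish, with a filter inserted after 1 h. Dead beetles were counted at 3 h at 19–21 °C, and % mortality and the synergistic factor were derived.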

Drosophila melanogaster = test: whole plant or invertebrate; type: in vivo; conditions: for mortality at 0.05 %: read-out: Wirksamkeit in % Substanz allein
Description: Die insektiziden Wirkungen von tertiären heterocyclischen Aminen und die synergistischen Eigenschaften mit dem Phosphorsäureester Dimethoat und dem Carbamat Dimetilan, getestet an Drosophila melanogaster.
Die Versuche wurden in Petrischalen von 10 cm Durchmesser ausgeführt. Es wurden zunächst die gerade noch wirksamen Konzentrationen von Dimethoat und Dimetilan bestimmt. Für Dimethoat wurde 0,005 % und für Dimetilan 0,0001 % als günstige Versuchskonzentration ermittelt. Die Aminkomponente wurde mit 1 ml 0,05%iger Lösung + 1 ml Aceton auf insektizide Wirkung getestet. Zur Bestimmung des Synergismus wurde 1 ml 0,05%ige Aminlösung + 1 ml 0,005.%ige Dimethoatlösung, bzw. + 1 ml 0,0001%ige Dimetilanlösung pro Petrischale eingesetzt. Alle Verdünnungen wurden mit Aceton als Lösungsmittel hergestellt.
In den Petrischalen wurden die Lösungen am Boden gut verteilt und 30 min lang antrocknen lassen. In jede Petrischale wurden 20 mit Kohlendioxid betäubte Drosophila eingezählt. Alle 5 min, insgesamt 12 mal, wurde die Anzahl der toten Drosophila ausgezählt und notiert. Die Zahlen wurden aufsummiert und im Verhältnis zur möglichen Zahl an toten Drosophila in % angegeben, wobei der Tot aller Drosophila innerhalb der ersten 5 min 100 % Wirkung entspricht. Jeder Versuch wurde mit 3 Wiederholungen durchgeführt. In Tabelle 1 sind die Mittelwerte der Ergebnisse zusammengestellt.
Zur Ermittlung des synergistischen Faktors wurden die Einzelwerte pro Zeiteinheit durch die für Dimethoat, bzw. Dimetilan für die jeweilige Zeiteinheit gefundenen Werte dividiert. Die Werte für jede Zeiteinheit wurden summiert und durch die Anzahl der Zeiteinheiten dividiert. Die Versuche wurden bei sonst stets gleichbleibenden Bedingungen bei Temperaturen von 20 - 22°C ausgeführt. Die Kontrollversuche zeigten bei Versuchsabschluß stets 0 % Mortalität. Hat die Substanz selbst eine insektizide Wirkung, so wurden die Wirkungsfaktoren für Dimethoat und Dimetilan nach Abzug des Substanzwertes berechnet und in der Tabelle aufgeführt.
Im Beispiel 1 war das Verhältnis von Insektizid und erfindungsgemäßem Amin 1 : 10 in den Gemischen mit Dimethoat. In der Tabelle 2 sind Verhältnisse von 1 : 1, 1 : 2 und 1 : 0,2 bei Versuchen mit Dimethoat aufgeführt, dabei wurde das Dimethoat immer in einer Konzentation von 0,005 % eingesetzt. Die Tabelle zeigt, daß auch bei diesen Verhältnissen noch eine gute synergistische Wirkung vorhanden ist, und es keineswegs einer großen überdosierung des Amins bedarf.

[2] = amine 1 mg/ml + Ripcord 0,01 mg/ml
[3] = amine 1 mg/ml + Talcord 0,01 mg/ml
[4] = amine 1 mg/ml in Aceton mixed 1 : 1 with Aceton, 2 ml per dish, 25 weevils, dead counted after 3 h
[5] = amine 1 mg/ml mixed 1 : 1 with Ripcord 0,01 mg/ml, 3 h
[6] = amine 1 mg/ml mixed 1 : 1 with Talcord 0,01 mg/ml, 3 h
[7] = 1 ml 0,05%ige amine solution + 1 ml 0,0001%ige Dimetilan solution
[8] = 1 ml 0,05%ige amine solution + 1 ml 0,005 %ige Dimethoat solution (Dimethoat : amine 1 : 10)
[9] = 1 ml 0,05%ige amine solution + 1 ml Aceton per dish, 20 flies, dead counted every 5 min, 12 times, mean values
[10] = amine 0,05 % + Dimethoat 0,005 %, calculated after subtracting the amine's own effect
[11] = Drosophila melanogaster, 1 ml 0,05%ige amine solution + 1 ml Aceton per dish, 20 flies, dead counted every 5 min, 12 times, mean values
[12] = amine 0,05 % + Dimetilan 0,0001 %, calculated after subtracting the amine's own effect
[13] = sitophilus granarius, in vivo, 3 h
[14] = drosophila melanogaster, in vivo

Row | SMILES | Synergistischer Faktor bei Ripcord [1, 2] | Synergistischer Faktor bei Talcord [1, 3] | Wirksamkeit in % Substanz allein [1, 4] | Wirksamkeit in % Substanz +Ripcord [1, 5] | Wirksamkeit in % Substanz +Talcord [1, 6] | Wirksamkeit in % Substanz +Dimeti-lan (Drosophila melanogaster; [7]) | Wirksamkeit in % Substanz +Dimethoat (Drosophila melanogaster; [8]) | Wirksamkeit in % Substanz allein (Drosophila melanogaster; [9]) | Faktor der Wirkungssteigerung bei Dime-methoat (Drosophila melanogaster; [10]) | mortality at 0.05 % (Drosophila melanogaster; [11]) | Faktor der Wirkungssteigerung bei Dimi-tilan (Drosophila melanogaster; [12]) | further results
1 | CCOC(=O)CC(C(=O)OCC)N1CCCCC1 (stereo not drawn) [N-Piperidino-bernstein-säure-di-ethylester] | 3,08 | 2,47 | 0% | 97,2% | 24,0% | 2,3% | 38,8% | 0% | 4,51 |  |  | 
2 | C(=Cc1ccccc1)CN1CCCCC1 [N-Cinnamyl-piperidin] | 3,08 | 7,01 |  | 97,2% | 68,0% | 82,5% | 77,1% |  | 1,25 | 66.3% | 6,48 | mortality at 1000 µg/mL [1, 4]: 0%
3 | CCCCOCCOCCOCCN1CCCC1 [N-(a-Butyl-triethylen-tri-ether-(w))-pyrrolidin] | 3,05 | 1,24 | 0% | 96,0% | 13,2% | 1,7% | 23,3% | 0% | 2,97 |  |  | 
4 | CCCCCCCCCCCCCCN1CCOCC1 [N-1-Tetradecyl-morpholin] | 2,03 |  |  | 64,0% | 5,2% | 2,5% | 57,1% |  | 6,64 | 0% |  | mortality at 1000 µg/mL [1, 4]: 0%
5 | CCCCCCCCCN1CCCCC1CC (stereo not drawn) [1-n-Nonyl-2-ethyl-piperidin] |  |  |  |  |  | 7,9% | 24,6% |  | 2,19 | 5.8% |  | 
6 | CCCCCCCCCCN1CCCCC1C (stereo not drawn) [N-Decyl-2-methyl-piperidin] |  |  |  |  |  | 77,9% | 66,7% |  |  | 61.3% | 2,87 | 
7 | CCCCCCCCCCN1CCCCCC1 [N-Decyl-hexamethylenimin] | 1,35 |  |  | 93,2% | 62,8% | 68,8% | 65,0% |  | 1,84 | 49.2% | 7,84 | mortality at 1000 µg/mL [1, 4]: 69.2%
8 | CCCCCCCCCCN1CCCC1 [N-1-Decyl-pyrrolidin] |  | 1,90 |  | 100,0% | 100,0% | 4,8% | 17,1% |  | 1,65 | 2.9% |  | mortality at 1000 µg/mL [1, 4]: 81.6%
9 | c1cc2c(cc1CN1CCCC1)OCO2 [N-Piperonyl-pyrrolidin] | 1,87 | 4,29 |  | 100,0% | 82,8% | 58,3% | 60,0% |  | 3,63 | 28.8% | 11,80 | mortality at 1000 µg/mL [1, 4]: 41.2%
10 | C=CC(C)(CCC=C(C)C)N1CCOCC1 (stereo not drawn) [N-1-Linalyl-morpholin] | 2,92 | 3,42 | 0% | 92,0% | 33,2% | 20,0% | 30,8% | 11,7% | 2,22 |  | 3,32 | 
11 | C=CC(C)(CCC=C(C)C)N1CC1 (stereo not drawn) [N-1-Linalyl-aziridin] | 2,99 | 6,72 | 0% | 97,2% | 65,2% | 0,42% | 21,7% | 0% | 2,67 |  |  | 
12 | c1ccc(OCCCN2CCCCC2)cc1 [N-(1-Phenoxi-propyl-(3))-piperidin] | 2,96 | 3,01 | 0% | 93,2% | 29,2% | 12,1% | 8,8% | 0% |  |  | 4,8 | 
13 | CCCCCCCCCCN1CCCCC1CC (stereo not drawn) [N-1-Decyl-2-ethyl-piperidin] |  |  |  |  |  | 56,3% | 55,8% |  | 2,42 | 35% | 8,52 | 
14 | Cc1cc(OC(=O)N(C)C)nn1C(=O)N(C)C [Dimetilan, reference compound] |  |  |  |  |  |  |  |  |  |  |  | mortality at 0.0001 % (Drosophila melanogaster; Drosophila melanogaster, read-out: Wirksamkeit von Dimetilan): 2.5%
15 | CCCCCC(CCCCC)N1CCCC1 [6-N-Pyrrolidino-undecan] | 1,90 | 6,06 | 0% | 60,0% | 58,8% | 75,8% | 54,2% | 39,6% | 1,70 |  | 14,48 | 
16 | CCCCOC(CN1CCOCC1)OCCCC [2-N-Morpholino-ethyl-di-butyl-acetal] |  |  |  |  |  |  |  |  |  |  |  | Synergistischer Faktor bei Ripcord ([1]; in vivo): 3,17; Synergistischer Faktor bei Talcord ([1]; in vivo): 10,31; Wirksamkeit in % Substanz +Ripcord [1, 13]: 100%; Wirksamkeit in % Substanz +Talcord [1, 13]: 100%; Wirksamkeit in % Substanz allein [1, 13]: 0%; Wirksamkeit in % Substanz +Dimethoat (Drosophila melanogaster; [14]): 17,9%; Wirksamkeit in % Substanz +Dimeti-lan (Drosophila melanogaster; [14]): 3,3%; Wirksamkeit in % Substanz allein (Drosophila melanogaster; [14]): 0,4%; Faktor der Wirkungssteigerung bei Dime-methoat (Drosophila melanogaster; in vivo): 2,03; Faktor der Wirkungssteigerung bei Dimi-tilan (Drosophila melanogaster; in vivo): 1,16
17 | CCCCOCCOCCN1CCOCC1 [N-(2'-Butoxi-diethylether-(2))-morpholin] |  |  |  |  |  |  |  |  |  |  |  | Synergistischer Faktor bei Ripcord ([1]; in vivo): 2,96; Synergistischer Faktor bei Talcord ([1]; in vivo): 8,12; Wirksamkeit in % Substanz +Ripcord [1, 13]: 93,2%; Wirksamkeit in % Substanz +Talcord [1, 13]: 78,8%; Wirksamkeit in % Substanz allein [1, 13]: 0%; Wirksamkeit in % Substanz +Dimethoat (Drosophila melanogaster; [14]): 12,9%; Wirksamkeit in % Substanz +Dimeti-lan (Drosophila melanogaster; [14]): 3,5%; Wirksamkeit in % Substanz allein (Drosophila melanogaster; [14]): 1,7%; Faktor der Wirkungssteigerung bei Dime-methoat (Drosophila melanogaster; in vivo): 1,30
18 | C(=CC1CCCCC1)CN1CCCC1 [N-(3-Cyclohexyl-propen-(2))-pyrrolidin] |  |  |  |  |  | 0% | 22,5% | 0% | 2,86 |  |  | 
